These results are taken from BindingDB's records for patent US20240109893 (Shanghai Kechow Pharma, 2024).

Structures are written as SMILES. pIC50: −log10 of the molar value.

The assay deals with GTPase KRas [G12C] (Homo sapiens, UniProt P01116, G12C). Kind of assay: KRAS G12C-GDP Exchange Assay. On the procedure:
1. […] 2. […] The IC50 (median inhibitory concentration) of the compound was obtained by the following non-linear fitting formula: Y=Bottom+(Top−Bottom)/(1+10^((Log IC50−X)*Hill Slope)), and the data were analyzed by Graphpad 6-0 software.

GTPase KRas [G12C], sequence (P01116 whole entry G12C): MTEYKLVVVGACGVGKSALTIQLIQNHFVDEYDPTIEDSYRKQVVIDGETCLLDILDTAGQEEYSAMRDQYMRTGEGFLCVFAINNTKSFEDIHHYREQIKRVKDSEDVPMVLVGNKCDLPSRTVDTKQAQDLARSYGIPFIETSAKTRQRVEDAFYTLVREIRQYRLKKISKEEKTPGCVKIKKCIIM

Usually pIC50 stands for the negative decadic logarithm of the IC50, by convention in mol/L. A lower pIC50 goes with a high IC50. `C=CC(=O)N1CCN(c2nc(OC[C@@H]3CCCN3C)nc3cc(-c4cccc5cccc(Cl)c45)c(F)cc23)C[C@@H]1CC#N` [US20240109893, Example 394] gave a pIC50 of 8.84.
